Assay results taken from ChEMBL document CHEMBL1201862, “PubChem BioAssay data set” (2004).
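Assay format: 96-well plates, 48-hour exposure. Abbreviation: GI50, concentration required for 50% inhibition of growth.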 Calls of active or inactive are those of the source. Cut-off read from the data, not from the text of the source: active = GI50 up to about 1.1 µM and inactive = higher.

Legend:
Assay in all cases: NCI-60 cell line screen, 48 h
786-0 = test system: 786-0
A498 = test system: A498
A549 = test system: A549
ACHN = test system: ACHN
BT-549 = test system: BT-549
CAKI-1 = test system: CAKI-1
COLO 205 = test system: COLO 205
DU-145 = test system: DU-145
EKVX = test system: EKVX
HCC 2998 = test system: HCC 2998
HCT-116 = test system: HCT-116
HCT-15 = test system: HCT-15
HOP-62 = test system: HOP-62
HOP-92 = test system: HOP-92
HT-29 = test system: HT-29
IGROV-1 = test system: IGROV-1
K562 = test system: K562
KM12 = test system: KM12
LOX IMVI = test system: LOX IMVI
M14 = test system: M14
MCF7 = test system: MCF7
MDA-MB-231 = test system: MDA-MB-231
MDA-MB-435 = test system: MDA-MB-435
MDA-N = test system: MDA-N
Malme-3M = test system: Malme-3M
NCI-H226 = test system: NCI-H226
NCI-H23 = test system: NCI-H23
NCI-H460 = test system: NCI-H460
NCI-H522 = test system: NCI-H522
NCI/ADR-RES = test system: NCI/ADR-RES
OVCAR-3 = test system: OVCAR-3
OVCAR-4 = test system: OVCAR-4
OVCAR-5 = test system: OVCAR-5
OVCAR-8 = test system: OVCAR-8
PC-3 = test system: PC-3
RPMI-8226 = test system: RPMI-8226
SF-268 = test system: SF-268
SF-295 = test system: SF-295
SF-539 = test system: SF-539
SK-MEL-28 = test system: SK-MEL-28
SK-MEL-2 = test system: SK-MEL-2
SK-MEL-5 = test system: SK-MEL-5
SK-OV-3 = test system: SK-OV-3
SN12C = test system: SN12C
SNB-19 = test system: SNB-19
SNB-75 = test system: SNB-75
SR = test system: SR
SW-620 = test system: SW-620
TK-10 = test system: TK-10
U-251 = test system: U-251
UACC-257 = test system: UACC-257
UACC-62 = test system: UACC-62
UO-31 = test system: UO-31
CCRF-CEM = test system: CCRF-CEM
HL-60 = test system: HL-60
MOLT-4 = test system: MOLT-4
RXF 393 = test system: RXF 393

With `CC(C)c1nccn1Cc1ccc(Cl)cc1Cl` the GI50 (786-0) was 38 µM (inactive), the GI50 (A498) was 55.5 µM (inactive) and the GI50 (A549) was 34.4 µM (inactive). The GI50 (ACHN) was 83 µM (inactive), the GI50 (BT-549) was 64.1 µM (inactive) and the GI50 (CAKI-1) was 53.7 µM (inactive). The GI50 (COLO 205) was 29.2 µM (inactive), the GI50 (DU-145) was 14.8 µM (inactive) and the GI50 (EKVX) was 25.5 µM (inactive). The GI50 (HCC 2998) was 23.4 µM (inactive), the GI50 (HCT-116) was 16.3 µM (inactive) and the GI50 (HCT-15) was 42.4 µM. For the same molecule, the GI50 (HOP-62) was 66.7 µM (inactive), the GI50 (HOP-92) was 37.8 µM (inactive) and the GI50 (HT-29) was 28.8 µM (inactive). The GI50 (IGROV-1) was > 100 µM (inactive), the GI50 (K562) was 79.1 µM (inactive) and the GI50 (KM12) was 30.5 µM (inactive). The GI50 (LOX IMVI) was 43.6 µM (inactive), the GI50 (M14) was 38.1 µM (inactive) and the GI50 (MCF7) was 34.1 µM (inactive). For the same molecule, the GI50 (MDA-MB-231) was 81.5 µM (inactive), the GI50 (MDA-MB-435) was 49.7 µM (inactive) and the GI50 (MDA-N) was 38.6 µM (inactive). For the same molecule, the GI50 (Malme-3M) was 41.2 µM (inactive), the GI50 (NCI-H226) was 22.4 µM (inactive) and the GI50 (NCI-H23) was 27.4 µM (inactive). For the same molecule, the GI50 (NCI-H460) was 34 µM (inactive), the GI50 (NCI-H522) was 21.2 µM (inactive) and the GI50 (NCI/ADR-RES) was 27 µM (inactive). For the same molecule, the GI50 (OVCAR-3) was 27.2 µM (inactive), the GI50 (OVCAR-4) was 52.5 µM (inactive) and the GI50 (OVCAR-5) was 27.7 µM (inactive). The GI50 (OVCAR-8) was 46.2 µM (inactive), the GI50 (PC-3) was 46.5 µM (inactive) and the GI50 (RPMI-8226) was 16 µM (inactive). The GI50 (SF-268) was 76.9 µM (inactive), the GI50 (SF-295) was 14.5 µM (inactive) and the GI50 (SF-539) was 61.2 µM (inactive). For the same molecule, the GI50 (SK-MEL-28) was > 100 µM (inactive), the GI50 (SK-MEL-2) was 74.3 µM (inactive) and the GI50 (SK-MEL-5) was 12 µM (inactive). For the same molecule, the GI50 (SK-OV-3) was 47.9 µM (inactive), the GI50 (SN12C) was 26.5 µM (inactive) and the GI50 (SNB-19) was 48.5 µM (inactive). For the same molecule, the GI50 (SNB-75) was 36.5 µM (inactive), the GI50 (SR) was 44.4 µM (inactive) and the GI50 (SW-620) was 49.1 µM (inactive). For the same molecule, the GI50 (TK-10) was 37.6 µM (inactive), the GI50 (U-251) was 41.5 µM (inactive) and the GI50 (UACC-257) was 17.7 µM (inactive). The GI50 (UACC-62) was 43.8 µM (inactive) and the GI50 (UO-31) was 24.9 µM (inactive).

In the case of `CSc1nc2c(c(=O)n1C)N=C(c1ccc(Cl)cc1)CC(c1ccccc1)N2` (stereo unspecified), the GI50 (786-0) was 31 µM (inactive), the GI50 (A498) was 33 µM (inactive) and the GI50 (A549) was 25.2 µM (inactive). The GI50 (ACHN) was 19 µM (inactive), the GI50 (BT-549) was 24.9 µM (inactive) and the GI50 (CAKI-1) was 24.4 µM (inactive). The GI50 (CCRF-CEM) was 26 µM (inactive), the GI50 (COLO 205) was 21.7 µM (inactive) and the GI50 (DU-145) was 24.7 µM (inactive). The GI50 (EKVX) was 20.9 µM (inactive), the GI50 (HCC 2998) was 24.6 µM (inactive) and the GI50 (HCT-116) was 27.2 µM (inactive). The GI50 (HL-60) was 29 µM (inactive), the GI50 (HOP-62) was 27.6 µM (inactive) and the GI50 (HOP-92) was 33.8 µM (inactive). The GI50 (HT-29) was 15.6 µM (inactive), the GI50 (IGROV-1) was 18.3 µM (inactive) and the GI50 (K562) was 20.7 µM (inactive). For the same molecule, the GI50 (KM12) was 15.7 µM (inactive), the GI50 (LOX IMVI) was 20.6 µM (inactive) and the GI50 (M14) was 17.5 µM (inactive). For the same molecule, the GI50 (MCF7) was 14.2 µM (inactive), the GI50 (MDA-MB-231) was 11.9 µM (inactive) and the GI50 (MDA-MB-435) was 34.4 µM (inactive). The GI50 (MDA-N) was 15.7 µM (inactive), the GI50 (MOLT-4) was 14.1 µM (inactive) and the GI50 (Malme-3M) was 16.1 µM (inactive). For the same molecule, the GI50 (NCI-H226) was 17.6 µM (inactive), the GI50 (NCI-H23) was 24.1 µM (inactive) and the GI50 (NCI-H522) was 17.6 µM (inactive). For the same molecule, the GI50 (NCI/ADR-RES) was 17.4 µM (inactive), the GI50 (OVCAR-3) was 33.7 µM (inactive) and the GI50 (OVCAR-4) was 6.84 µM (inactive). The GI50 (OVCAR-5) was 33.8 µM (inactive), the GI50 (OVCAR-8) was 27.8 µM (inactive) and the GI50 (PC-3) was 24.3 µM (inactive). The GI50 (RPMI-8226) was 22 µM (inactive), the GI50 (RXF 393) was 39.4 µM (inactive) and the GI50 (SF-295) was 21.3 µM (inactive). The GI50 (SF-539) was 17.9 µM (inactive), the GI50 (SK-MEL-28) was 47.8 µM (inactive) and the GI50 (SK-MEL-2) was 13.9 µM (inactive). The GI50 (SK-MEL-5) was 19.5 µM (inactive), the GI50 (SK-OV-3) was 29.4 µM (inactive) and the GI50 (SN12C) was 18.7 µM (inactive). The GI50 (SNB-19) was 36.3 µM (inactive), the GI50 (SNB-75) was 13.3 µM (inactive) and the GI50 (SR) was 29.9 µM (inactive). For the same molecule, the GI50 (SW-620) was 49 µM (inactive), the GI50 (U-251) was 40.8 µM (inactive) and the GI50 (UACC-257) was 22.6 µM (inactive). For the same molecule, the GI50 (UACC-62) was 16.1 µM (inactive) and the GI50 (UO-31) was 24.5 µM (inactive).
